#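 Where inhibition never reached the appropriate level, the endpoint shown equals the highest concentration tested. Otherwise, values were interpolated linearly from a five-concentration, 48-hour dose response in 96-well plates. TGI: total growth inhibition.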
# Experiments:
# Test in all cases: inhibition of tumour cell growth, NCI panel, 48 h
# SW-620 colon = system: SW-620 colon
# A498 renal = system: A498 renal
# OVCAR-8 ovarian = system: OVCAR-8 ovarian
# LOX IMVI melanoma = system: LOX IMVI melanoma
# BT-549 breast = system: BT-549 breast
# RXF 393 renal = system: RXF 393 renal
# SF-539 CNS = system: SF-539 CNS
# UACC-257 melanoma = system: UACC-257 melanoma
# MDA-N = system: MDA-N
# HL-60(TB) leukemia = system: HL-60(TB) leukemia
# OVCAR-3 ovarian = system: OVCAR-3 ovarian
# UACC-62 melanoma = system: UACC-62 melanoma
# K-562 leukemia = system: K-562 leukemia
# OVCAR-5 ovarian = system: OVCAR-5 ovarian
Compound,TGI (SW-620 colon) [µM],TGI (A498 renal) [µM],TGI (OVCAR-8 ovarian) [µM],TGI (LOX IMVI melanoma) [µM],TGI (BT-549 breast) [µM],TGI (RXF 393 renal) [µM],TGI (SF-539 CNS) [µM],TGI (UACC-257 melanoma) [µM],TGI (MDA-N) [µM],TGI (HL-60(TB) leukemia) [µM],TGI (OVCAR-3 ovarian) [µM],TGI (UACC-62 melanoma) [µM],TGI (K-562 leukemia) [µM],TGI (OVCAR-5 ovarian) [µM]
CCOC(=O)c1nc2ccc(C(F)(F)F)cc2nc1Nc1cc(OC)c(OC)c(OC)c1,> 100,> 100,> 100,> 100,> 100,> 100,> 100,> 100,> 100,> 100,> 100,> 100,> 100,> 100
O=c1c2ccccc2[nH]n1Cc1ccccc1,> 100,> 100,> 100,> 100,> 100,> 100,> 100,> 100,> 100,> 100,> 100,> 100,> 100,> 100
S=C(N/N=C(\c1ccccc1)c1ccccn1)NC1CCCCC1,> 100,> 100,3.44,23.6,> 100,> 100,> 100,> 100,> 100,> 100,> 100,> 100,> 100,> 100
NC(N)=NS(=O)(=O)c1ccc(N/N=C2/CCOC2=O)cc1,> 100,> 100,> 100,> 100,> 100,> 100,> 100,> 100,> 100,> 100,> 100,> 100,> 100,> 100
CCCCCCCCCCCCOP(=O)(O)OP(=O)(O)OCC1OC(n2ccc(N)nc2=O)CC1O (stereo unspecified),> 100,> 100,> 100,> 100,> 100,> 100,> 100,> 100,> 100,> 100,> 100,> 100,> 100,> 100
C=CC(O)(CBr)CCC(Br)C(=C)C (stereo unspecified),> 10,> 10,> 10,> 10,> 10,> 10,> 10,> 10,> 10,> 10,> 10,> 10,> 10,> 10
CC(Oc1ccccc1Cl)C(=O)NN1C(=O)CC(=O)N(c2ccccc2)C1=S (stereo unspecified),> 100,> 100,> 100,> 100,> 100,> 100,> 100,> 100,> 100,59.7,> 100,> 100,> 100,> 100
Cc1cc(S(=O)(=O)N2CCNNC2=O)c(S)cc1Cl,> 100,> 100,> 100,> 100,64.2,40.9,> 100,> 100,> 100,> 100,> 100,> 100,> 100,> 100
CSc1nc(C)cc(Nc2ccc(O)c(CN3CCOCC3)c2)n1,> 100,> 100,> 100,> 100,> 100,> 100,> 100,> 100,> 100,> 100,> 100,> 100,> 100,> 100

# Source: PubChem BioAssay (NCI)
